Here are results for 91 compounds from a melting point compilation (Tetko et al.; mined from patent text by program, amines drawn as free bases though some values may be those of a salt).

With `COc1cc2c(Nc3ccc(Cl)cc3F)ncnc2cc1OCc1ccnc(C#N)c1`, the melting point was 209 to 213 °C.
Consider `COc1cccc2c(COCCC(c3ccccc3)c3ccccc3)coc12`, for which the melting point lay in the range of 147 to 149 °C.
`Cc1[nH]c(=O)n(-c2cc(C(=O)OC(C)C)c(Cl)cc2F)c(=O)c1C` returned a melting point of 155 to 157 °C.
Take `O=C(NCC(=O)N1c2ccccc2N(Cc2ccccc2)C(=O)[C@H]2CCC[C@H]21)c1ccccc1` (relative stereo): the melting point was in the range of 201 to 203 °C.
As to `Cc1nc2cccc3n(CCCCCNS(=O)(=O)CC(F)(F)F)c(=O)c1n23`, the melting point is 143 to 145 °C.
Regarding `COc1ccc2cc([C@H](C)C(=O)OCC(=O)N(C)CC(=O)OCCCO)ccc2c1`, the melting point was in the range of 41 to 43 °C.
The result for `O=C(NCCO)c1cccc(-c2cc3c(ccn3Cc3ccc(Cl)cc3Cl)cn2)c1` reads 198 to 199 °C; that for `COc1cc(Br)ccc1C12CC3CC(CC(C3)C1)C2`, 159 to 160 °C.
The result for `CS(=O)(=O)c1ccc(-c2scnc2-c2ccc(F)cc2)cc1` reads 138 to 139 °C.
As for `O=C(CCNC(=O)[C@H](Cc1ccccc1)OP(=O)(O)CCCCc1ccccc1)OCc1ccccc1`, the figure is 64 to 70 °C; as for `CC(=O)Oc1ccc(C2COc3cc(OC(C)=O)c(OC(C)=O)cc3C2)cc1` (stereo unspecified), 145 to 147 °C; as for `Cc1c(C)c2ccc(OCc3ccccc3)cc2oc1=O`, 131 to 135 °C.
The compound `CC(=O)NCCCCCNc1ccc(NCCN(C)C)c2c1C(=O)c1ccccc1C2=O` displayed a melting point of 138 to 139 °C.
The result for `Cn1cncc1C(O)(c1ccc([N+](=O)[O-])cc1)c1ccc2c(c1)c(-c1cccc(Cl)c1)cc(=O)n2C` (stereo unspecified) reads 230 °C; that for `O=C(NCCCCCn1cncn1)c1ccc(Cl)cc1`, 68 to 70 °C.
The result for `FC(F)(F)C(c1ccc(Cl)cc1Cl)c1ccc(Cl)cc1Cl` reads 84 to 86 °C; that for `C#CCn1c(-c2cc(Cl)nc(Cl)c2)nn(C(C)(C)C)c1=O`, 107 to 109 °C; that for `CCS(=O)(=O)Nc1cc(N=C=S)c(F)cc1Cl`, 104 to 105 °C.
As for `O=C1NC2(CCCc3sccc32)c2ccccc21` (stereo unspecified), the figure is 224 to 226 °C; as for `O=C(CF)Cc1ccc(Cl)cc1Cl`, 48 to 52 °C; as for `CCN(CCc1ccc(Nc2ncc3c(n2)-c2ccccc2C(c2cccc(Br)c2)C3)cc1)C(C)C` (stereo unspecified), 67 to 69 °C.
In turn, `CC(=O)OC1CCC2C3CCC4=CC(=O)C(I)CC4(C)C3CCC12C` (stereo unspecified) had a melting point of 92 °C.
As for `CCC(=N)NC(=O)OC`, the figure is 87 to 93 °C; as for `C[C@@H](CNC(=O)COC(=O)c1cc(S(N)(=O)=O)c(Cl)cc1NCc1ccco1)O[N+](=O)[O-]`, 125 to 138 °C; as for `CCOC(=O)c1cc(-c2ccccc2)oc1C(F)(F)F`, 44 to 45 °C.
The result for `O=c1c(Cl)c(Cl)cnn1-c1ccc(Cl)cc1F` reads 158 °C; that for `O=C1c2cc(C(F)(F)F)c(C(F)(F)F)cc2C(=O)c2cc3ccccc3cc21`, above 280 °C; that for `CCCCCCCCCCCCCc1c[nH]c(C(=O)OCC)c1`, 59 to 60 °C.
As for `CCC1Cc2cc(OC(C)(C)C(=O)O)c(Cl)c(Cl)c2C1=O` (stereo unspecified), the figure is 165 to 166 °C.
For the compound `COc1nc2cc(Cl)cc(CCCO)c2nc1OC`, the melting point was in the range of 104 to 105 °C.
As for `C[C@H](N=C(C(=O)O)C(C)(C)C)c1ccccc1`, the figure is 135 to 136 °C; as for `CS(=O)(=O)c1ccc(-c2cnn(-c3ccccc3F)c(=O)c2-c2ccc(F)cc2)cc1`, 96 to 103 °C; as for `COc1c(CN(C)C)c2c(c3c1OC(C)(C)C3)C(c1ccccc1)=NC(C)(C)C2`, 124 to 125 °C.
The compound `CCc1noc(-c2c[nH]c(-c3cccc(Oc4ccc(Br)cn4)c3)n2)n1` showed a melting point of 141 to 142 °C.
The result for `Cc1ccc(C2CCN(C(=O)CCC(=O)c3ccc4c(c3)CCNCC4)CC2)cc1` reads 115 to 116 °C; that for `Nc1ccc(-c2nc3c(O)cccc3c(=O)[nH]2)cc1`, above 230 °C; that for `O=C(OCc1ccccc1)C(C(=O)OCc1ccccc1)n1cccc1`, 48.5 to 49 °C.
The result for `CC(=O)c1ccc(-c2ccc(F)cc2)c(F)c1` reads 80 to 82.5 °C; that for `Cc1cc(C(=O)NCCO)ncc1C(c1cc(F)ccc1F)S(=O)(=O)c1ccc(F)cc1` (stereo unspecified), 153 to 154 °C.
The result for `CCCc1c(OCCCS(=O)(=O)c2ccc(C(=O)NCC(=O)OCC)cc2)ccc(C(C)=O)c1O` reads 138 to 140 °C; that for `O=C1CC(c2cccc(-n3ccnc3)c2)=Nc2ccc(C3CC3)cc2N1`, 198 to 200 °C.
In turn, `COC(=O)c1cc(NC(C)=O)c2cc(Cc3ccc(F)cc3)cnc2c1O` showed a melting point of 243 to 245 °C.
The result for `O=C(O)c1ccc(NCc2ccc(F)cc2)cn1` reads 197 to 200 °C; that for `Cc1c(-n2ccnc2)n(CCCCCCCC(=O)O)c2ccccc12`, 101 to 103 °C; that for `COc1ccc(-c2ccc(Cl)nn2)c(OCC2CO2)c1` (stereo unspecified), 111 to 112 °C.
Compound `COc1cc(OP(=O)(OC)OC)c(C(=O)c2ccccc2)s1` yielded a melting point of 76 °C.
In turn, `CCOC(=O)CSc1nc(Cl)cc(NN=Cc2ccc(F)cc2)n1` registered a melting point of 146 to 149 °C.
Compound `Cc1ccc(C2COc3c(C)c(C)c(Br)c(C)c32)cc1` (stereo unspecified) returned a melting point of 108 to 109 °C.
`O=CNc1nc(C(=NOC2CCCCC2)C(=O)O)cs1`: the melting point is above 230 °C.
As for `Cc1ccc(S(=O)(=O)C(C)(C)C(=O)C(C)C)cc1`, the figure is 76 to 79 °C; as for `COc1n[nH]c(=O)n1O`, 211 °C; as for `CC(=O)N1CCc2c(sc(C)c2CCBr)C1`, 93 to 95 °C.
The result for `CCOC1(c2ccccc2)CCN(C)CC1O` (stereo unspecified) reads 145 to 146 °C.
On to `COc1ccc(-c2ccc(NN)nn2)cc1OC(C)C`, for which the melting point amounted to 116 °C.
As for `CCC1(O)CC(=O)OCc2c1cc[nH]c2=O` (stereo unspecified), the figure is 118 to 119 °C; as for `CNC(=S)C(CN1CCOCC1)(OC)c1ccccn1` (stereo unspecified), 128 to 132 °C.
As for `NC(=O)c1ccc(N)c(C(N)=O)c1`, the figure is 177 to 198 °C; as for `CS(=O)(=O)c1ccc(C(=O)N[C@H]2CC[C@H](CCN3CCC(c4cccc5c4CCO5)CC3)CC2)s1`, 255 °C; as for `O=[N+]([O-])C=C1C2CC3CC(C2)CC1C3`, 78 to 81 °C.
The result for `CC(C)c1cc(S(=O)(=O)C(C)C)c(C(C)C)cc1C#N` reads 130 to 134 °C; that for `COC1C(N2CCCC2=O)c2sccc2OC1(C)C` (stereo unspecified), 117 to 118 °C; that for `Cc1nn(C(=O)NC(C)(C)CCc2ccccc2Cl)c(=O)n1N`, 102 °C.
In turn, `O=C1NC(=O)C(Cc2ccccc2)S1` (stereo unspecified) came in with a melting point of 83 to 86 °C.
As for `CN(C)c1ccc(-c2ccc3c(c2)CC[C@H]2N(C)C(=O)CC[C@]32C)cc1`, the figure is 197 to 202 °C.
The result for `CC(C)(C)OC(=O)CCNC(=O)c1ccc2c(Cl)cnc(Cl)c2c1` reads 131 to 133 °C; that for `COC(=O)C12COc3cc(C(F)(F)F)ccc3C1=NN(C(=O)Nc1ccc(C(F)(F)F)cn1)C2` (stereo unspecified), 194 to 195 °C; that for `C[C@@H]1C[C@H](C)CN(C(=O)[C@@H]2Cc3cc(Br)ccc3N2c2ncccn2)C1`, 142 to 144 °C.
The result for `O=C(NN1CCCCC1)NS(=O)(=O)c1ccc(CCN2C(=O)c3ccccc3C2(O)c2ccccc2)cc1` (stereo unspecified) reads 228 °C; that for `CN1CC(c2cc3ccccc3o2)CC1=O` (stereo unspecified), 73 °C; that for `CCCN(c1cccc(-c2ccnc3c([N+](=O)[O-])cnn23)c1)S(=O)(=O)c1ccc(OC)cc1`, 184 to 185 °C.
`Cc1ccc2c(NCc3ccc(NC(=O)C4CCN(Cc5ccc(C(F)(F)F)cc5)CC4)cc3)nc(N(C)C)nc2c1` came in with a melting point of 126 to 128 °C.
As for `CCn1c(=O)c2c(nc(/C=C/c3cc(OC)c4c(c3)OCO4)n2C)n(CC)c1=O`, the figure is 202 °C; as for `Cn1ccc2cc(N3Cc4c(N)cccc4C3=O)ccc21`, 198 to 203 °C.
As for `CCCCCCCCCCC=Cc1cnn(C(C(=O)Nc2c(C(C)C)cccc2C(C)C)c2ccccc2)c1` (stereo unspecified), the figure is 158 °C; as for `CCCCc1nc2c(N)nc3ccccc3c2n1CCCCON=C(C)C`, 115 to 117 °C; as for `COc1cc(-c2n[nH]c(N=C(c3ccccc3)c3ccccc3)n2)c(OC)cc1C`, 228 °C.
In turn, `CC(C)CC(CS)C(=O)NCC(=O)NCC(=O)O` (stereo unspecified) displayed a melting point of 152 to 156 °C.
As for `Clc1ccc(-c2ccc(C=CC3COC4(CCCCC4)OO3)cc2)cc1` (stereo unspecified), the figure is 109 to 111 °C; as for `CCOc1nn(C(=O)NS(=O)(=O)c2ccccc2N2CCCC2)c(=O)n1C`, 68 °C.
The result for `CCn1cc(C(=O)O)c(=O)c2cc([N+](=O)[O-])c(-c3cc(C)nc(C)c3)cc21` reads 289 to 291 °C; that for `CC(C)(C)c1ccc(C(=O)Nc2cn3cc(F)ccc3n2)cc1`, 250 to 251 °C; that for `CN(C)CCOc1ccc(C=NO)cc1`, 95 to 96 °C.
Take `CCCSc1sc(C(N)=O)c2c1-c1nn(C(C)=O)cc1CC2`: the melting point is 219 to 220 °C.
The result for `CC(C)(C)c1cc(C(=O)c2ccccc2)cc(CN2CCC(O)CC2)c1O` reads 156 to 157 °C.
`CC(C)(C)Cc1ccc(C(=O)c2ccccc2C(=O)O)cc1` came in with a melting point of 154 °C.
`O=C1CSc2ccc3ccccc3c2N1`: the melting point is 195 to 196 °C.
As for `CS(=O)(=O)c1sccc1SCc1ccccc1`, the figure is 95 to 97 °C; as for `CSC(=S)C1(c2ccncc2)CCCS1` (stereo unspecified), 64 °C.
For `CC(C)C1COCc2nc3c(N)nc4cc(OCC(=O)N5CCOCC5)ccc4c3n21` (stereo unspecified), the melting point lay within 137 to 139 °C.
The result for `CC1(C)CC(=O)Nc2cc3nc(-c4cccc(Cl)c4)[nH]c3cc21` reads 190 to 193 °C; that for `O=C1CC(c2cccnc2)=NN1c1ccc(O)cc1`, above 250 °C.
